From doi:10.64898/2025.12.07.692800v1 (biorxiv, 2025)

Assays:
[1] = target: T1, LAG-3-His (recombinant human LAG-3; discussed as LAG-3 D1) (Homo sapiens, UniProt P18627); assay: MST; type: binding
T1 sequence (P18627 23-450 limits assumed): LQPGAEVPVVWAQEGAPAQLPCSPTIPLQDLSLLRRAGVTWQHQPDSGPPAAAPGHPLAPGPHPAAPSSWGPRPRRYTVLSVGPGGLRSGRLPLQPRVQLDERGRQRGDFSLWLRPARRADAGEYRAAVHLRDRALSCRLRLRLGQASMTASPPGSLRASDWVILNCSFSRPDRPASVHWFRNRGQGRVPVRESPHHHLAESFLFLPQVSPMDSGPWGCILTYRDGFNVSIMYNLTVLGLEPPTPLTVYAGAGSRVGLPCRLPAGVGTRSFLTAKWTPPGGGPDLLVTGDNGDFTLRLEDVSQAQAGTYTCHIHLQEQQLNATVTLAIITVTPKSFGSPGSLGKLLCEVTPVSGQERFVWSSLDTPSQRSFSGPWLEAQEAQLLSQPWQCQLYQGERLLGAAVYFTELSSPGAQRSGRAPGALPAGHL

[2] = target: T2, LAG-3 / MHCII (Revvity HTRF Human LAG-3 / MHCII Binding Kit) (Homo sapiens, UniProt P18627); assay: HTRF
T2 sequence (P18627 23-450 limits assumed): T1 sequence (P18627 23-450 limits assumed)

A Kd [1] of 59.2 µM and an EC50 [2] of 42.9 µM were found for `N#Cc1ccnnc1N1CCCC(c2c[nH]c3ncccc23)C1` (centres unmarked) [N05] in this work.
